In patent US4436751A, “Nitrobenzyl monates antibacterial compounds” (Beecham Group Limited, priority 1980, dated 1984):
Values after ≈ are worked out from the molar mass of the structure shown. Where two headings read alike, the source gives them in different places.

Assays:
Type in all cases: cell-based
M. suipneumoniae JF 435 = test: Anti-mycoplasmal MIC in vitro, Friis broth agarose (Table 1); conditions: Mesomycoplasma hyopneumoniae, JF435, 144 h
[1] = system: M. suipneumoniae J2206/183b; test: as above; conditions: Mesomycoplasma hyopneumoniae, 144 h
M. suipneumoniae LABER = test: as above; conditions: Mesomycoplasma hyopneumoniae, 144 h
M. suipneumoniae TAM 6N = test: as above; conditions: Mesomycoplasma hyopneumoniae, TAM6N, 144 h
[2] = system: M. suipneumoniae NCTC 10110; test: as above; conditions: Mesomycoplasma hyopneumoniae, NCTC10110, 144 h
M. hyorhinis ATCC 23234 = test: as above; conditions: Mesomycoplasma hyorhinis, ATCC23234, 144 h
M. bovis RCTC 10131 = test: microbe, parasite or virus in culture; conditions: RCTC10131, 144 h
[3] = system: M. bovigenitalium ATOC 14173; test: Anti-mycoplasmal MIC in vitro, Friis broth agarose (Table 1); conditions: 144 h
M. dispar RCTC 10125 = test: as above; conditions: 144 h
M. gallisepticum S6 = test: as above; conditions: Mycoplasmoides gallisepticum
Bord. bronchiseptica BO8 = test: Veterinary bacteria MIC, Diagnostic Sensitivity Test Agar (Table 2); conditions: Bordetella bronchiseptica; Bord. bronchiseptica BO8; DST Agar, 10^4 organisms, 18 hours 37° C.; read-out: MIC
Procedure: (§1) The values were determined using a two fold serial dilutions in Diagnostic Sensitivity Test Agar with an inoculum of 10^4 organisms and incubation for 18 hours at 37° C.

Bord. bronchiseptica BO9 = test: as above; conditions: Bordetella bronchiseptica; Bord. bronchiseptica BO9; DST Agar, 10^4 organisms, 18 hours 37° C.; read-out: MIC
Procedure: as §1

[4] = system: Corynebacterium pyogenes CY1; test: as above; conditions: Trueperella pyogenes; Corynebacterium pyogenes CY1; DST Agar, 10^4 organisms, 18 hours 37° C.; read-out: MIC
Procedure: as §1

E. Coli E1 = test: as above; conditions: Escherichia coli; E. Coli E1; DST Agar, 10^4 organisms, 18 hours 37° C.; read-out: MIC
Procedure: as §1

E. Coli NCTC 10418 = test: as above; conditions: Escherichia coli, NCTC10418; E. Coli NCTC 10418; DST Agar, 10^4 organisms, 18 hours 37° C.; read-out: MIC
Procedure: as §1

[5] = system: Erysipelothrix rhusiopathiae NCTC 8163; test: as above; conditions: NCTC8163; Erysipelothrix rhusiopathiae NCTC 8163; DST Agar, 10^4 organisms, 18 hours 37° C.; read-out: MIC
Procedure: as §1

Past. haemolytica PA5 = test: as above; conditions: Mannheimia haemolytica; Past. haemolytica PA5; DST Agar, 10^4 organisms, 18 hours 37° C.; read-out: MIC
Procedure: as §1

Past. multocida PA1 = test: as above; conditions: Pasteurella multocida; Past. multocida PA1; DST Agar, 10^4 organisms, 18 hours 37° C.; read-out: MIC
Procedure: as §1

Past. multocida PA2 = test: as above; conditions: Pasteurella multocida; Past. multocida PA2; DST Agar, 10^4 organisms, 18 hours 37° C.; read-out: MIC
Procedure: as §1

S. dublin S7 = test: as above; conditions: Salmonella enterica; S. dublin S7; DST Agar, 10^4 organisms, 18 hours 37° C.; read-out: MIC
Procedure: as §1

S. typhimurium S18 = test: as above; conditions: Salmonella enterica; S. typhimurium S18; DST Agar, 10^4 organisms, 18 hours 37° C.; read-out: MIC
Procedure: as §1

Staph. aureus 152 = test: as above; conditions: Staphylococcus aureus; Staph. aureus 152; DST Agar, 10^4 organisms, 18 hours 37° C.; read-out: MIC
Procedure: as §1

Staph. aureus B4 = test: as above; conditions: Staphylococcus aureus; Staph. aureus B4; DST Agar, 10^4 organisms, 18 hours 37° C.; read-out: MIC
Procedure: as §1

Staph. aureus Oxford = test: as above; conditions: Staphylococcus aureus; Staph. aureus Oxford; DST Agar, 10^4 organisms, 18 hours 37° C.; read-out: MIC
Procedure: as §1

Strep. agalactiae SPA1 = test: as above; conditions: Streptococcus agalactiae; Strep. agalactiae SPA1; DST Agar, 10^4 organisms, 18 hours 37° C.; read-out: MIC
Procedure: as §1

Strep. dylgalactiae SPD1 = test: as above; conditions: Strep. dylgalactiae SPD1; DST Agar, 10^4 organisms, 18 hours 37° C.; read-out: MIC
Procedure: as §1

[6] = system: Strep. suis (group D) SPS11; test: as above; conditions: Streptococcus suis; Strep. suis (group D) SPS11; DST Agar, 10^4 organisms, 18 hours 37° C.; read-out: MIC
Procedure: as §1

Strep. uberis SPO1 = test: as above; conditions: Streptococcus uberis; Strep. uberis SPO1; DST Agar, 10^4 organisms, 18 hours 37° C.; read-out: MIC
Procedure: as §1

[7] = M. suipneumoniae JF 435, in vitro, 6 days 37° C., read-out: MIC
[8] = M. suipneumoniae TAM 6N, in vitro, 6 days 37° C., read-out: MIC
[9] = M. suipneumoniae NCTC 10110, in vitro, 6 days 37° C., read-out: MIC
[10] = 144 h, M. gallisepticum S6, in vitro, 6 days 37° C., read-out: MIC

Row | SMILES | MIC (M. bovis RCTC 10131) [µg/mL] | MIC [3] [µg/mL] | MIC (Bord. bronchiseptica BO8) [µg/mL] | MIC (Bord. bronchiseptica BO9) [µg/mL] | MIC [4] [µg/mL] | MIC (E. Coli E1) [µg/mL] | MIC (E. Coli NCTC 10418) [µg/mL] | MIC [5] [µg/mL] | MIC (Past. haemolytica PA5) [µg/mL] | MIC (Past. multocida PA1) [µg/mL] | MIC (Past. multocida PA2) [µg/mL] | MIC (S. dublin S7) [µg/mL] | MIC (S. typhimurium S18) [µg/mL] | MIC (Staph. aureus 152) [µg/mL] | MIC (Staph. aureus B4) [µg/mL] | MIC (Staph. aureus Oxford) [µg/mL] | MIC (Strep. agalactiae SPA1) [µg/mL] | MIC (Strep. dylgalactiae SPD1) [µg/mL] | MIC [6] [µg/mL] | MIC (Strep. uberis SPO1) [µg/mL] | further results
1 | C/C(=C\C(=O)OC(C)c1cccc([N+](=O)[O-])c1)CC1OCC(CC2OC2C(C)C(C)O)C(O)C1O (stereo not drawn) [Example 3, 1-(m-nitrophenyl)ethyl monate A] | 0.025 (≈ 0.0507 µM) | 0.05 (≈ 0.101 µM) | > 80 | 80 (≈ 162 µM) | > 80 | > 80 | > 80 | 80 (≈ 162 µM) | 40 (≈ 81 µM) | 20 (≈ 40.5 µM) | 2.5 (≈ 5.07 µM) | > 80 | > 80 | 2.5 (≈ 5.07 µM) | 2.5 (≈ 5.07 µM) | 2.5 (≈ 5.07 µM) | 2.5 (≈ 5.07 µM) | 1.25 (≈ 2.53 µM) | 40 (≈ 81 µM) | 0.312 (≈ 0.632 µM) | MIC (M. suipneumoniae JF 435; [7]): 0.25 µg/mL (≈ 0.507 µM); MIC ([1]; M. suipneumoniae J2206/183b, in vitro, 6 days 37° C., read-out: MIC): 0.25 µg/mL (≈ 0.507 µM); MIC (M. suipneumoniae LABER; M. suipneumoniae LABER, in vitro, 6 days 37° C., read-out: MIC): 0.1 µg/mL (≈ 0.203 µM); MIC (M. suipneumoniae TAM 6N; [8]): 0.25 µg/mL (≈ 0.507 µM); MIC [2, 9]: 0.25 µg/mL (≈ 0.507 µM); MIC (M. hyorhinis ATCC 23234; M. hyorhinis ATCC 23234, in vitro, 6 days 37° C., read-out: MIC): 0.1 µg/mL (≈ 0.203 µM); MIC (M. dispar RCTC 10125): 0.05 µg/mL (≈ 0.101 µM); MIC (M. gallisepticum S6; [10]): > 10 µg/mL
2 | C/C(=C\C(=O)OC(C)c1ccc([N+](=O)[O-])cc1)CC1OCC(CC2OC2C(C)C(C)O)C(O)C1O (stereo not drawn) [Example 4, 1-(p-nitrophenyl)ethyl monate A] | 0.025 (≈ 0.0507 µM) | 0.05 (≈ 0.101 µM) | > 80 | 5 (≈ 10.1 µM) | > 80 | > 80 | > 80 | 40 (≈ 81 µM) | 20 (≈ 40.5 µM) | 5 (≈ 10.1 µM) | 2.5 (≈ 5.07 µM) | > 80 | > 80 | 1.25 (≈ 2.53 µM) | 2.5 (≈ 5.07 µM) | 1.25 (≈ 2.53 µM) | 2.5 (≈ 5.07 µM) | 0.625 (≈ 1.27 µM) | 20 (≈ 40.5 µM) | 0.312 (≈ 0.632 µM) | MIC (M. suipneumoniae JF 435; [7]): 2.5 µg/mL (≈ 5.07 µM); MIC ([1]; J2206/183B): 1 µg/mL (≈ 2.03 µM); MIC (M. suipneumoniae LABER): 1 µg/mL (≈ 2.03 µM); MIC (M. suipneumoniae TAM 6N; [8]): 2.5 µg/mL (≈ 5.07 µM); MIC [2, 9]: 2.5 µg/mL (≈ 5.07 µM); MIC (M. hyorhinis ATCC 23234): 0.5 µg/mL (≈ 1.01 µM); MIC (M. dispar RCTC 10125; M. dispar RCTC 10125, in vitro, 6 days 37° C., read-out: MIC): 0.1 µg/mL (≈ 0.203 µM); MIC (M. gallisepticum S6; [10]): > 10 µg/mL
3 | C/C(=C\C(=O)OCc1cccc([N+](=O)[O-])c1)CC1OCC(C/C=C/C(C)C(C)O)C(O)C1O (stereo not drawn) [Example 5, m-nitrobenzyl monate C] | 0.1 (≈ 0.216 µM) | 0.1 (≈ 0.216 µM) | > 80 | 40 (≈ 86.3 µM) | > 80 | > 80 | > 80 | > 80 | 40 (≈ 86.3 µM) | 10 (≈ 21.6 µM) | 2.5 (≈ 5.39 µM) | > 80 | > 80 | 2.5 (≈ 5.39 µM) | 2.5 (≈ 5.39 µM) | 2.5 (≈ 5.39 µM) | 2.5 (≈ 5.39 µM) | 1.25 (≈ 2.7 µM) | 80 (≈ 173 µM) | 0.625 (≈ 1.35 µM) | MIC (M. suipneumoniae JF 435): 0.25 µg/mL (≈ 0.539 µM); MIC ([1]; J2206/183B): 0.25 µg/mL (≈ 0.539 µM); MIC (M. suipneumoniae LABER): 0.1 µg/mL (≈ 0.216 µM); MIC (M. suipneumoniae TAM 6N): 0.25 µg/mL (≈ 0.539 µM); MIC [2]: 0.25 µg/mL (≈ 0.539 µM); MIC (M. hyorhinis ATCC 23234): 0.25 µg/mL (≈ 0.539 µM); MIC (M. dispar RCTC 10125): 0.1 µg/mL (≈ 0.216 µM); MIC (M. gallisepticum S6; S6, 144 h): 5 µg/mL (≈ 10.8 µM)
